Experimental data taken from patent publication US20080118436A1, “Pathological Animal Model For Non-Alcoholic Fatty Hepatitis” (priority 2004, published 2008).
Structures can show the parent of a compound that is named as a salt.

Key:
[1] = tested on: C57BL/6J male mice; assay: Intraperitoneal administration of tetracycline hydrochloride for 10 days to mice fed with HFD for 8 weeks (Example 1); format: in vivo
Text: (§1) In the following Examples and Comparative examples, as an animal for producing a pathologic model animal, C57BL/6J male mice (Nippon CLEA, Inc.) were used. Further, as a high-fat diet (hereinafter referred to as “HFD”), D12492 (fat content: 60 kcal%) (Research Diet Inc.) was used. As a control diet, CE-2 (Nippon CLEA, Inc.) to be used for normal rearing of mice was used. As a tetracycline antibiotic, tetracycline hydrochloride (Sigma Inc.) was used. The administration of tetracycline hydrochloride was carried out by injection of a solution of 0, 10, 30 or 100 mg/10 mL of tetracycline hydrochloride prepared with a 0.5% physiological saline solution. Here, the “solution of 0 mg/10 mL of tetracycline hydrochloride” means a 0.5% physiological saline solution.
29 mice (6 weeks of age) were divided into a group of 15 mice fed with HFD (hereinafter referred to as an “HFD group”) and a group of 14 mice fed with a control diet (hereinafter referred to as a “control group”). The following experiments related to the HFD group (15 mice) and the control group (14 mice) were assigned to Example 1 and Comparative example 1, respectively.
Feeding of HFD or control diet and intraperitoneal administration of tetracycline hydrochloride First, the mice in the HFD group and the control group were fed ad libitum with HFD and the control diet for 8 weeks, respectively. Then, the mice in the HFD group and the control group were divided into 3 groups, respectively, in such a manner that the body weight and the body fat percentage were equal in the respective groups, thereby to form 3 groups in the HFD group (5 mice×3 groups), and 3 groups in the control group (5 mice×2 groups and 4 mice×1 group). Then, tetracycline hydrochloride was intraperitoneally administered to both the HFD group and the control group at a dose of 0, 10 and 30 mg/kg/day for 10 days (hereinafter, the groups administered with tetracycline hydrochloride at a dose of 0, 10 and 30 mg/kg/day are referred to as “TC 0 group”, “TC 10 group” and “TC 30 group”, respectively). The mice were fed ad libitum with HFD or the control diet also during the period of administering tetracycline hydrochloride.
The body weight of mice was measured on 4 days before initiation of administration of tetracycline hydrochloride and on day 1, 3, 5, 7, 10 and 11 after initiation of administration thereof. FIG. 1 is a line graph showing the change in the body weight of mice intraperitoneally administered with tetracycline hydrochloride for 10 days after feeding them with HFD or the control diet for 8 weeks. […] Incidentally, in FIG. 1, the term “days” represents the number of days elapsed after initiation of administration of tetracycline hydrochloride.
On the next day after completion of administration of tetracycline hydrochloride (on day 11 after initiation of administration), the mice were anesthetized by isoflurane inhalation. After it was Confirmed that the mice lost pain sensation by pinching the tail with forceps, the mice underwent laparotomy and the blood was collected from the abdominal vena cava with a syringe containing heparin. The collected blood was centrifuged at 4° C. for 10 minutes at 7500 rpm thereby to separate plasma. The obtained plasma was cryopreserved. […]
By using the cryopreserved plasma, the plasma ALT level, plasma AST level and plasma glucose level were measured using Hitachi autoanalyzer 7070 (Hitachi Hi Technologies), and the plasma insulin level was measured using an insulin assay kit (Seikagaku Corporation). […]

[2] = tested on: C57BL/6J male mice; assay: Subcutaneous administration of tetracycline hydrochloride for 10 days to mice fed with HFD for 8 weeks (Example 2); format: in vivo; settings: for histopathological test of liver: mouse, in vivo, sc
Text: as §1
20 mice (7 weeks of age) were fed ad libitum with HFD for 8 weeks. Then, the mice were divided into 4 groups (5 mice×4 groups) in such a manner that the body weight and the body fat percentage were equal in the respective groups, and subcutaneously administered with tetracycline hydrochloride at a dose of 0, 30, 60 and 100 mg/kg/day for 10 days (hereinafter, the groups administered with tetracycline hydrochloride at a dose of 0, 30, 60 and 100 mg/kg/day are referred to as “TC 0 group”, “TC 30 group”, “TC 60 group” and “TC 100 group”, respectively). The mice were fed ad libitum with HFD also during the period of administering tetracycline hydrochloride.
The body weight of mice was measured on 3 days before initiation of administration of tetracycline hydrochloride and everyday from the next day until day 11 after initiation of administration thereof. FIG. 12 is a line graph showing the change in the body weight of mice subcutaneously administered with tetracycline hydrochloride for 10 days after feeding them with HFD for 8 weeks. […] Incidentally, in FIG. 12, the term “days” represents the number of days elapsed after initiation of administration of tetracycline hydrochloride.
Blood collection and dissection were carried out in the same manner as in Example 1.
The plasma ALT level, plasma AST level, plasma insulin level and plasma glucose level were measured in the same manner as in Example 1. FIG. 13 is a bar graph showing the plasma ALT level in mice subcutaneously administered with tetracycline hydrochloride for 10 days after feeding them with HFD for 8 weeks. FIG. 14 is a bar graph showing the plasma AST level in mice subcutaneously administered with tetracycline hydrochloride for 10 days after feeding them with HFD for 8 weeks. […] FIG. 15 is a bar graph showing the plasma insulin level in mice subcutaneously administered with tetracycline hydrochloride for 10 days after feeding them with HFD for 8 weeks. […] FIG. 16 is a bar graph showing the plasma glucose level in mice subcutaneously administered with tetracycline hydrochloride for 10 days after feeding them with HFD for 8 weeks.
The hepatic TG level was measured in the same manner as in Example 1. FIG. 17 is a bar graph showing the hepatic TG level in mice subcutaneously administered with tetracycline hydrochloride for 10 days after feeding them with HFD for 8 weeks.
Measurement of Hepatic TNF-α mRNA level and hepatic IL-1β mRNA level The hepatic TNF-α mRNA level and hepatic IL-1β mRNA level were measured in the same manner as in Example 1. FIG. 18 is a bar graph showing the hepatic TNF-α mRNA level in mice subcutaneously administered with tetracycline hydrochloride for 10 days after feeding them with HFD for 8 weeks. FIG. 19 is a bar graph showing the hepatic IL-1β mRNA level in mice subcutaneously administered with tetracycline hydrochloride for 10 days after feeding them with HFD for 8 weeks.
A histopathological test of liver was carried out in the same manner as in Example 1.

[3] = HFD 8 weeks, i.p. 30 mg/kg/day for 10 days, vs normal mice
[4] = HFD group (i.p. 0, 10, 30 mg/kg/day for 10 days), vs normal mice
[5] = HFD 8 weeks, s.c. 30 mg/kg/day for 10 days, vs normal mice
[6] = HFD 8 weeks, s.c. 60 mg/kg/day for 10 days, vs normal mice
[7] = HFD 8 weeks, s.c. 100 mg/kg/day for 10 days, vs normal mice

CN(C)[C@@H]1C(O)=C(C(N)=O)C(=O)[C@@]2(O)C(O)=C3C(=O)c4c(O)cccc4[C@@](C)(O)[C@H]3C[C@@H]12 [tetracycline hydrochloride] was tested, and the “plasma ALT level” value [1, 3] was “significantly higher”, the “plasma AST level” value [1, 3] was “significantly higher” and the plasma glucose level [1, 4] was “equivalent to or higher”. The plasma insulin level [1, 4] was “equivalent to or higher”, the “histopathological test of liver” value ([1]; mouse, in vivo, ip, 30 mg/kg/day) was “presence of fatty liver and the invasion of inflammatory cells were observed” and the “plasma ALT level” value [2, 5] was “significantly higher”. For the same compound, the “plasma AST level” value [2, 5] was “significantly higher”, the plasma insulin level [2, 5] was “higher” and the “plasma ALT level” value [2, 6] was “significantly higher”. For the same compound, the “plasma AST level” value [2, 6] was “significantly higher”, the plasma insulin level [2, 6] was “higher” and the “plasma ALT level” value [2, 7] was “significantly higher”. The “plasma AST level” value [2, 7] was “significantly higher”, the plasma insulin level [2, 7] was “equivalent” and the plasma glucose level ([2]; HFD 8 weeks, s.c. any group (0, 30, 60, 100 mg/kg/day) for 10 days, vs normal mice) was “higher”. For the same compound, the “histopathological test of liver” value ([2]; 30 mg/kg/day) was “presence of fatty liver and the invasion of inflammatory cells were observed”, the “histopathological test of liver” value ([2]; 60 mg/kg/day) was “presence of fatty liver and the invasion of inflammatory cells were observed” and the “histopathological test of liver” value ([2]; 100 mg/kg/day) was “presence of fatty liver and the invasion of inflammatory cells were observed”.
